The subject of assay [1] is aorta rings of Mas−/− mice. Nature of the assay: Vasorelaxation in precontracted aorta rings of mice with genetic deletion of the Mas receptor (Mas-/-). The format is cell-based, mice (C57/BI-6 and FVB/N). As to conditions: both lineages C57/BI-6 and FVB/N, precontracted with fenilefrine 0.1 μM. The method, then: This example describes the vasodilating effect of Ala^1-Ang-(1-7), independently of the Mas receptor, on aorta rings of mice with genetic deletion of the Mas receptor (Mas−/−) and wild-type mice (Mas+/+) from two different lineages, C57/BI-6 and FVB/N.
The original rings of the descending thoracic aorta (2 mm), free from adipose tissue and connective tissue, were incubated in gasified solution (95% O2 and 5% CO2) of Krebs-Henseleit (mmol/L): NaCl 110.8, KCl 5.9, NaHCO3 25.0, MgSO4 1.07, CaCl2 2.49, NaH2PO4 2.33 and glucose 11.51, under a temperature of 37° C. and a 0.5 g tension, being equilibrated for 1 hour. The functional presence of endothelium was tested by its relaxing capacity produced by acetylcholine [ACh] (10 μM) on vessels precontracted with fenilefrine (0.3 μM). Only the vessels showing relaxation above 70% of extended contraction produced by fenilefrine were taken into account. […]
The aorta rings of mice Mas−/− and Mas+/+ from both lineages (C57/BI-6 and FVB/N) were precontracted to achieve the same tension level (approximately a 1.0 g tension) at a submaximum concentration of fenilefrine (0.1 μM). […] The vasodilating effects of Ala^1-Ang-(1-7) and Ang-(1-7) were expressed as a percentage of relaxation relative to the maximum contraction induced by fenilefrine. […]

Assay [2] concerns the target T1, angiotensin converter enzyme (ACE) (Rattus norvegicus, UniProt P47820).
T1 construct: from tissue; host or cells: plasma of Wistar rats
T1 sequence (P47820 36-1238 limits assumed): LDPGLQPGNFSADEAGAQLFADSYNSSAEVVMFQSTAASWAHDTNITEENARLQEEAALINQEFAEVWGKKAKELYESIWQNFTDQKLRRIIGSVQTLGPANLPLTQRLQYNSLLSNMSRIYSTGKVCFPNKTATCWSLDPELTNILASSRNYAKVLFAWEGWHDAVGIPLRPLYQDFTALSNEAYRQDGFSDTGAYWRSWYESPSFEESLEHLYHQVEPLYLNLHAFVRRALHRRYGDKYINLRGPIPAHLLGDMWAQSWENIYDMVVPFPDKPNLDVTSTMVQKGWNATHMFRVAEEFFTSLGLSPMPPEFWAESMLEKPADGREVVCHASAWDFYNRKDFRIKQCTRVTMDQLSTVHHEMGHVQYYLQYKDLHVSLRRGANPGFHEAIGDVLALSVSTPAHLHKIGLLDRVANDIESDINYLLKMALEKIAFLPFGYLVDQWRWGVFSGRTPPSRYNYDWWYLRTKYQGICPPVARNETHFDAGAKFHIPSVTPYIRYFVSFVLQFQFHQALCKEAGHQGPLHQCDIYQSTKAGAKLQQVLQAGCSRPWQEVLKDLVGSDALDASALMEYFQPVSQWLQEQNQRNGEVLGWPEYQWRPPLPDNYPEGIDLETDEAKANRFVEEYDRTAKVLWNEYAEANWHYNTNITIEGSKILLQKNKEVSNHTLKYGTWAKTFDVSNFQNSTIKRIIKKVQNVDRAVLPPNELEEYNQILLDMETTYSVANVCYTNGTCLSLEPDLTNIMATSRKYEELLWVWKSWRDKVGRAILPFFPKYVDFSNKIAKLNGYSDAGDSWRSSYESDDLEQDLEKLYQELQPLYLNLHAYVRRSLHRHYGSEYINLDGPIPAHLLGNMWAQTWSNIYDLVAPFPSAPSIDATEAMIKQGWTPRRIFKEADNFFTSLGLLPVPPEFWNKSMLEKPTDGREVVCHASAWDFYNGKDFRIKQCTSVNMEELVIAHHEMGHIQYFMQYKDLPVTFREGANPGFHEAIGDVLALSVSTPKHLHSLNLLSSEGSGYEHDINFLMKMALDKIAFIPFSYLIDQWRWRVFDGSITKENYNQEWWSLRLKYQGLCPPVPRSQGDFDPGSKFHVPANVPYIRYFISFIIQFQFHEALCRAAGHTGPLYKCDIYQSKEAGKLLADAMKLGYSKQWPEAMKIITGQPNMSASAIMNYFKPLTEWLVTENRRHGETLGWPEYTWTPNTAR
The experiment in a line: Plasmatic ACE activity, fluorimetric method with Hip-His-Leu substrate. It is filed as biochemical, Wistar rats. As to conditions: Wistar rat plasma. The method, then: The plasmatic activity of ACE was measured by the fluorimetric method using Hip-His-Leu as substrate, as previously described (Santos, R. A. S. et al., Hypertension, 7:244-52, (1985)). Plasma aliquots (10 μL) of Wistar rats were incubated with a […] solution containing a 1 mM substrate (Hip-His-Leu) and 0.4 M of sodium borate, 0.9 M NaCl (pH=8.3) for 15 minutes at 37° C. The reaction was halted by adding 1.2 mL of NaOH at 0.34 M and […] of orthoftaldehyde (20 mg/mL in methanol). After 10 minutes at environment temperature, […] of HCl at 3 N was added. Later on, after a 5-minute 800×g centrifugation, the floating solution fluorescence was measured (a 365 nm excitation and a 495 nm emission). The blank was prepared by inverting the addition order of plasma and NaOH. A 0.5 to 20 nmol curve, containing the product (His-Leu) resulting of the substrate break (Hip-His-Leu) by ACE plasmatic activity, was prepared in each assay. In order to test the inhibition effect of ACE by the PEPTIDEs Ang-(1-7) and Ala^1-Ang-(1-7), 3.3×10^−7 or 3.3×10^−6 M of each PEPTIDE was added before the plasma addition. […] The percentage of enzymatic activity inhibition was estimated in function of the maximum activity obtained.

Here are results for two substances from patent US9974825B2, “Peptides Des-[Asp1]-[Ala1], angiotensin-(1-7) agonist and pharmaceutical compositions for the treatment of diseases” (UNIVERSIDADE FEDERAL DE MINAS GERAIS, priority 2008, dated 2018).

Regarding “Ala^1-Arg^2-Val^3-Tyr^4-Ile^5-His^6-Pro^7 [Ala^1-Ang-(1-7)]”, the vasodilating response entry in assay [1] is recorded as “totally preserved”. Also, the ACE inhibition is 98.3% in assay [2] (peptide 3.3×10^−6 M) and 76.3% in assay [2] (peptide 3.3×10^−7 M).
On the same counts, the results for “Asp^1-Arg^2-Val^3-Tyr^4-Ile^5-His^6-Pro^7 [Ang-(1-7)]” are “absence”, 85.8% and 42.4%.
